Source: patent US11219670B2, “Targeting CAPN9/CAPNS2 activity as a therapeutic strategy for the treatment of myofibroblast differentiation and associated pathologies” (The Johns Hopkins University, priority 2014, dated 2022)
Where a SMILES comes first, the peptide text is derived from it. The star is where a group is joined. Cbz = O=C(OCc1ccccc1)*; Boc = CC(C)(C)OC(=O)*

Tests used:
[1] = biological target: T1, Human recombinant mini-CAPN9 (Homo sapiens, UniProt O14815); assay: Biochemical assay for calpain 9 inhibition (FRET peptide substrate, FLIPR); details: IC50 by 4 parameter logistic fitting; 10 min preincubation; ambient temperature
T1 construct: made in house; host or cells: E. coli
T1 sequence (O14815 42-337 limits assumed): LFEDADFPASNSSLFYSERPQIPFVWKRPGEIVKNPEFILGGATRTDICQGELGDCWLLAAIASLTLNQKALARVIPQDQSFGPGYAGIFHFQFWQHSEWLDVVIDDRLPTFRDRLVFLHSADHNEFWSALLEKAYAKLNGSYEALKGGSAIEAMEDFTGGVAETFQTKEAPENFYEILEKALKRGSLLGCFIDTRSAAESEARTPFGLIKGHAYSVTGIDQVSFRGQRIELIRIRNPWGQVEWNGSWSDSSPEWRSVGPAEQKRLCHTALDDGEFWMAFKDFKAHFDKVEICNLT
Procedure: Human recombinant mini-CAPN9 was expressed in E. coli and purified as described in Davis, T. L., et al. (2007) J Mol Biol 366(1): 216-229.
All enzyme reactions are run at ambient temperature (˜25° C.) in black 384 well assay plates. Inhibitors solutions in DMSO are typically semi-log serially diluted prior to further dilution in assay buffer (Tris-HCl 20 mM, KCl 100 mM, BSA 0.1%, 1 mM DTT). Calpain enzyme stocks are diluted in assay buffer without Ca (II) just prior to use (1 μM) and incubated with serially diluted test compounds at 2× concentrations in the assay plate for 10 min.
After the compound preincubation, the FLIPR liquid handler is used to initiate the reaction by adding a 2× mix of substrate (1 μM Calpain FRET peptide substrate (5-FAM/QXL 520) Anaspec (Catalog# AS-72149)) and Ca (II) (10 mM). Reactions are measured using a FLIPR Tetra reader (Molecular Devices Inc).
Slopes (reaction rates) are calculated within the 0-2 min interval using the ScreenWorks software (Molecular Devices Inc). Slopes are plotted versus test compound concentration to obtain dose-response curves. IC50 values are obtained using 4 parameter logistic fitting.

phosphorylation of SMAD2 = assay: TGFβ-induced phosphorylation of SMAD2 in NMuMG cells (western blot); format: cell-based, Mouse
Procedure: (§1) (FIG. 1B; Levels were normalized to the 72 h TGFβ1 only treated sample for each blot. Students t-test *p<0.05, **p<0.01, † p<0.005, †† p<0.001). […] (FIG. 1H; Levels were normalized to the 72 h TGFβ1 only treated sample for each blot. Students t-test *p<0.05, **p<0.01, † p<0.005, †† p<0.001).

[2] = system: calpain activity (cleavage of Filamin A); assay: TGFβ-induced calpain activity in NMuMG cells (cleavage of Filamin A, western blot); format: cell-based, Mouse
Procedure: as §1

NMuMG cells [3] = assay: TGFβ1-induced EpMT in NMuMG cells (αSMA western blot, qPCR, immunofluorescence); format: cell-based, Mouse; details: for TGFβ1-induced EpMT as measured by αSMA expression: western blot
Procedure: (§2) (FIG. 1B; Levels were normalized to the 72 h TGFβ1 only treated sample for each blot. Students t-test *p<0.05, **p<0.01, † p<0.005, †† p<0.001). […] (FIG. 1H; Levels were normalized to the 72 h TGFβ1 only treated sample for each blot. Students t-test *p<0.05, **p<0.01, † p<0.005, †† p<0.001). FIG. 1G and FIG. 1H show the small molecule […] SB431542 suppressed TGFβ-induced calpain activity (as measured by cleavage of Filamin A, a known calpain substrate) and TGFβ-induced phosphorylation of SMAD2, as measured by western blot (FIG. 1H) and quantified western blot data done in biological replicates (FIG. 1H; Levels were normalized to the 72 h TGFβ1 only treated sample for each blot. Student's t-test *p<0.05, **p<0.01, † p<0.005, †† p<0.001).). […] NMuMG cells pretreated with TGFβ1 for 72 hours to induce EMT, and then treated with calpain inhibitor MDL-28170 while in the continued presence of TGFβ1 for an additional 48 h or 72 h post-induction, can revert to a more epithelial phenotype as assessed by αSMA expression by western blot (FIG. 1I) and quantified western blot data done in biological replicates (FIG. 1J; Levels were normalized to TGFβ1 only treated samples within each time point. Students t-test *p<0.05).
Calpain inhibition was also found to suppress TGFβ-induced expression of genes commonly and functionally associated with fibrosis, such as collagen 1A1, vimentin and matrix metalloproteinase 2/9 (FIG. 1C). A profound decrease in E-cadherin, a cell surface protein highly expressed by epithelial cells, was observed by immunofluorescence upon stimulation with TGFβ but was prevented by treatment with calpain inhibitor MDL-28170 (FIG. 1D). […] (FIG. 1F). […]

MDCK cells = assay: TGFβ-induced EpMT in MDCK cells (αSMA western blot); format: cell-based, Canine
[4] = system: Primary Normal Human Lung Fibroblasts (NHLF); assay: TGFβ1-induced FMT in NHLF cells (αSMA western blot); format: cell-based
From the text: Resident fibroblasts have also been described to undergo transformation in the presence of high TGFβ. Using Primary Normal Human Lung Fibroblasts (NHLF), it was shown that treatment with calpain inhibitor MDL-28170 (FIG. 8A and FIG. 8B) or siRNA mediated knockdown of CAPNS2 (FIG. 8C) can inhibit TGFβ1-induced FMT as measured by αSMA.

NMuMG cells [5] = assay: Reversal of pre-established TGFβ-induced myofibroblast differentiation in NMuMG cells (mesenchymal-to-epithelial transition); format: cell-based, Mouse; details: NMuMG pretreated with TGFβ 72 h, 48 h and 72 h post-induction
Procedure: as §2
If TGFβ-induced calpain activity is necessary to maintain myofibroblast differentiation, suppression of calpain activity after pre-establishment of myofibroblast differentiation should be sufficient for mesenchymal-to-epithelial transition and provide evidence supporting reversal of a disease state.

PAVEC = assay: TGFβ1-induced EnMT in PAVEC (qPCR, immunofluorescence); format: cell-based
From the text: (FIG. 7B; E-cadherin shown in green, vimentin shown in red, DAPI nuclear marker shown in blue. Scale bar=100 μm). […] Scale bar=100 μm);
Myofibroblasts can derive from cell types other than those of epithelial origin, including endothelial cells and fibroblasts. […] (FIG. 7B). Overexpression of calpastatin inhibits TGFβ1-induced EnMT in PAVEC as measured from gene expression of αSMA, vimentin, E-cadherin, MMP2 and MMP9 (FIG. 7C) and inhibits morphological changes associated with EnMT, such as downregulation of E-cadherin/cell-cell adhesion and upregulation of vimentin. (FIG. 7D).

Molecule: CC(C)C[C@H](NC(=O)[C@H]1O[C@@H]1C(=O)O)C(=O)NCCCCNC(=N)N [E-64]
- IC50 [1]: 11.6 µM

Molecule: NCCOB(c1ccccc1)c1ccccc1 [2-APB, 2-aminoethoxydiphenyl borate]
- TGFβ-induced phosphorylation of SMAD2 (phosphorylation of SMAD2): without significantly affecting
- TGFβ-induced calpain activity (cleavage of Filamin A) [2]: suppressed
- TGFβ1-induced EpMT as measured by αSMA expression (NMuMG cells [3]): able to inhibit TGFβ1-induced αSMA expression at high doses

Molecule: CC(C)C[C@@H](C=O)NC(=O)[C@@H](NS(=O)(=O)c1ccc(F)cc1)C(C)C [Calpain Inhibitor IV SJA-6017]
- IC50 [1]: 2.23 µM

Molecule: CSCC[C@@H](C=O)NC(=O)[C@H](CC(C)C)NC(=O)[C@H](CC(C)C)NC(C)=O [Calpain Inhibitor II (ALLM)] (Ac-Leu-Leu-Met-aldehyde)
- IC50 [1]: 3.32 µM

Molecule: CC(C)[C@H](NC(=O)CNC(=O)OC(C)(C)C)C(=O)N[C@H](C=O)C(C)C [Boc-Gly-Val-Val-CHO] (Boc-Gly-Val-Val-aldehyde)
- IC50 [1]: 6.68 µM

Molecule: CC(C)CCNC(=O)[C@H](CC(C)C)NC(=O)[C@H]1O[C@@H]1C(=O)O [E-64-C]
- IC50 [1]: 35.8 µM

Molecule: NC(=O)c1ccc(-c2nc(-c3ccc4c(c3)OCO4)c(-c3ccccn3)[nH]2)cc1 [SB431542]
- TGFβ-induced phosphorylation of SMAD2 (phosphorylation of SMAD2): did not show
- TGFβ-induced calpain activity (cleavage of Filamin A) [2]: did not show
- TGFβ1-induced EpMT as measured by αSMA expression (NMuMG cells [3]): did not show

Molecule: CC(=O)N[C@@H](CC(C)C)C(=O)N[C@@H](CC(C)C)C(=O)N[C@H](C=O)CCCNC(=N)N [Leupeptin Hemisulfate]
- IC50 [1]: 9.24 µM

Molecule: C=CC[C@@H]1/C=C(\C)C[C@H](C)C[C@H](OC)[C@H]2O[C@@](O)(C(=O)C(=O)N3CCCC[C@H]3C(=O)O[C@H](/C(C)=C/[C@@H]3CC[C@@H](O)[C@H](OC)C3)[C@H](C)[C@@H](O)CC1=O)[C@H](C)C[C@@H]2OC [FK506, tacrolimus]
- TGFβ1-induced EpMT as measured by αSMA expression (NMuMG cells [3]): able to potently suppress

Molecule: CCCC[C@@H](C=O)NC(=O)[C@H](CC(C)C)NC(=O)OCc1ccccc1 [Calpeptin]
- TGFβ-induced phosphorylation of SMAD2 (phosphorylation of SMAD2): without significantly affecting
- IC50 [1]: 2.84 µM
- TGFβ-induced calpain activity (cleavage of Filamin A) [2]: suppressed
- TGFβ1-induced EpMT as measured by αSMA expression (NMuMG cells [3]): suppresses

Molecule: CC(C)C[C@@H](C=O)NC(=O)[C@H](CC(C)C)NC(=O)[C@H](CC(C)C)NC(=O)OCc1ccccc1 [MG-132] (Cbz-Leu-Leu-Leu-aldehyde)
- IC50 [1]: 9.88 µM

Molecule: O=C1Nc2ccc([N+](=O)[O-])cc2C1=O [5-Nitroisatin]
- IC50 [1]: 42.3 µM

Molecule: CC(C)[C@H](NC(=O)OCc1ccccc1)C(=O)N[C@H](C=O)Cc1ccccc1 [MDL-28170] (Cbz-Val-Phe-aldehyde)
- TGFβ-induced phosphorylation of SMAD2 (phosphorylation of SMAD2): without significantly affecting
- IC50 [1]: 1.61 µM
- TGFβ-induced EpMT as measured from αSMA expression (MDCK cells): suppresses TGFβ-induced EpMT in MDCK cells
- TGFβ-induced calpain activity (cleavage of Filamin A) [2]: suppressed
- TGFβ1-induced reorganization of the actin cytoskeleton to stress fibers (NMuMG cells [3]; immunofluorescence): blocked
- TGFβ-induced decrease in E-cadherin (NMuMG cells [3]; immunofluorescence): prevented
- TGFβ-induced expression of genes associated with myofibroblast differentiation and/or fibrosis (Col1A1, Vimentin, MMP2, MMP9) (NMuMG cells [3]; quantitative PCR): suppresses
- TGFβ1-induced EpMT as measured by αSMA expression (NMuMG cells [3]): antagonize TGFβ1-induced EpMT
- TGFβ1-induced FMT as measured by αSMA [4]: can inhibit
- E-cadherin expression after pre-established myofibroblast differentiation (NMuMG cells [5]): reacquired expression of the epithelial marker E-cadherin
- actin cytoskeleton organisation after pre-established myofibroblast differentiation (NMuMG cells [5]): reorganized their actin cytoskeleton from stress fibers to cortical actin
- αSMA expression after pre-established myofibroblast differentiation (NMuMG cells [5]; continued TGFβ1): decreased expression of αSMA

Molecule: CCC(C)[C@H](NS(=O)(=O)c1cccc2ccccc12)C(=O)N[C@H](C=O)Cc1c[nH]c2ccccc12 (stereo partly drawn) [NapSul-Ile-Trp-CHO]
- IC50 [1]: 6.25 µM

Molecule: NS8593
- TGFβ-induced phosphorylation of SMAD2 (phosphorylation of SMAD2): without significantly affecting
- TGFβ-induced calpain activity (cleavage of Filamin A) [2]: suppressed
- TGFβ1-induced EpMT as measured by αSMA expression (NMuMG cells [3]): able to potently inhibit
- TGFβ1-induced FMT as measured by αSMA [4]: able to suppress

Molecule: CC(C)C[C@@H](C=O)NC(=O)[C@H](CC(C)C)NC(=O)OCc1ccccc1 [Z-Leu-Leu-CHO]
- IC50 [1]: 2.35 µM

B1: calpastatin: endogenous calpain inhibitor, mouse calpastatin overexpressed from a bicistronic vector with GFP (protein, UniProt P51125 1-788, looked up)
Calpastatin: MSQPGPKPAASPRPSRGAAARHTQEHVNEKNIGSSSKPGEKKGSDEKKAASLGSSQPSRPHVGEAATATKVTASSAATSKSPSMSTTETKAIPVNKQLEGPDQKRPREQAVKTESKKPQSSEQPVVHEKKSKGGPKEGSEPKNLPKHTSSTGSKHAHKEKALSRSNEQMVSEKPSESKTKFQDVPSAGGESVAGGGTVATALDKVVGKKKEQKPFTPASPVQSTPSKPSDKSGMDAALDDLIDTLGGHEDTNRDDPPYTGPVVLDPMYSTYLEALGIKEGTIPPEYRKLLEKNEGITQPLPDSPKPMGTDQAIDALSSDFTCSSPTGKQSEKEKSTGEIFKAQSAGVTRSSVPPKEKKRKVEEEVINDQALQALSDSLGTRQPDPPSHVSQAEQVKEAKAKEERQEKCGEDEDTVPAEYRLKPAKDKDGKPLLPEPEETSKSLSESELIGELSADFDRSTYQDKPSTPAEKKSNDTSQTPPGETVPRASMCSIRSAPPKLASLKGVVPEDAVETLAGSLGTREADPEHEKTVEDKVKEKAKEEEHEKLGEKEETVPPDYRLEEVKDKDGKPLLPKESQEQLAPLSDDFLLDALSQDFSSPANISSLEFEDAKLSAAISEVVSQTPAPSTHAAAPLPGTEQKDKELDDALDELSDSLGQRPPDPDENKPLDDKVKEKIKPEHSEKLGERDDTIPPEYRHLLDNDGKDKPEKPPTKKTEKPDQDRDPIDALSEDLDSCPSTTETSKNTAKGKSKKTSSSKASKDGEKTKDSSKKTEEVSKPKAKEDARHS
modifications: co-expressed with GFP
- TGFβ-induced phosphorylation of SMAD2 (phosphorylation of SMAD2): without affecting
- morphological changes associated with EnMT (downregulation of E-cadherin/cell-cell adhesion, upregulation of vimentin) (PAVEC; immunofluorescence): inhibits
- TGFβ1-induced EnMT as measured from gene expression of αSMA, vimentin, E-cadherin, MMP2 and MMP9 (PAVEC; quantitative PCR): inhibits
- TGFβ-induced calpain activity (cleavage of Filamin A) [2]: suppressed
- TGFβ1-induced EpMT as measured by αSMA expression (NMuMG cells [3]): virtually no αSMA protein
